pIC50: −log10 of the molar value. The source made the active and inactive calls. The calls are words filed in the database; no cut-off is given here.
How the values were obtained:
HeLa [1] = test: Induction of apoptosis in human HeLa cells assessed as necrotic cells at 100 nM incubated for 48 hrs by annexin V FITC and propidium iodide staining based flow cytometry analysis (reference value: 1.85 %); assay type: functional
HeLa [2] = test: Induction of apoptosis in human HeLa cells assessed as late apoptotic cells at 500 nM incubated for 24 hrs by annexin V FITC and propidium iodide staining based flow cytometry analysis (reference value: 0.05%); assay type: functional
HeLa [3] = test: Induction of apoptosis in human HeLa cells assessed as viable cells at 500 nM incubated for 24 hrs by annexin V FITC and propidium iodide staining based flow cytometry analysis (reference value: 85.7%); assay type: functional; conditions: read-out: Activity
HeLa [4] = test: Induction of mitochondrial membrane potential alteration in human HeLa cells assessed as necrotic cells at 250 nM measured after 48 hrs by JC1 staining-based flow cytometry analysis (reference value: 0%); assay type: functional
HeLa [5] = test: Induction of mitochondrial membrane potential alteration in human HeLa cells assessed as late apoptotic cells at 750 nM measured after 48 hrs by JC1 staining-based flow cytometry analysis (reference value: 0.009%); assay type: functional
HeLa [6] = test: Induction of apoptosis in human HeLa cells assessed as viable cells at 1 uM incubated for 24 hrs by annexin V FITC and propidium iodide staining based flow cytometry analysis (reference value: 85.7%); assay type: functional; conditions: read-out: Activity
HeLa [7] = test: Induction of apoptosis in human HeLa cells assessed as viable cells at 1 uM incubated for 72 hrs by annexin V FITC and propidium iodide staining based flow cytometry analysis (reference value: 90.1%); assay type: functional; conditions: read-out: Activity
HeLa [8] = test: Induction of apoptosis in human HeLa cells assessed as necrotic cells at 500 nM incubated for 48 hrs by annexin V FITC and propidium iodide staining based flow cytometry analysis (reference value: 1.85 %); assay type: functional
HeLa [9] = test: Induction of apoptosis in human HeLa cells assessed as necrotic cells at 1 uM incubated for 48 hrs by annexin V FITC and propidium iodide staining based flow cytometry analysis (reference value: 1.85 %); assay type: functional
HeLa [10] = test: Induction of mitochondrial membrane potential alteration in human HeLa cells assessed as necrotic cells at 500 nM measured after 48 hrs by JC1 staining-based flow cytometry analysis (reference value: 0%); assay type: functional
[11] = Metabolic stability in rat liver microsomes assessed as intrinsic clearance incubated for 5 mins in presence of NADPH by HPLC analysis; assay type: ADME, Microsome; conditions: read-out: CLH
A549 = test: cells; conditions: Homo sapiens, A549, 48 h
Description: Antiproliferative activity against human A549 cells assessed as reduction in cell viability incubated for 48 hrs by MTS assay

HeLa [12] = test: Induction of mitochondrial membrane potential alteration in human HeLa cells assessed as necrotic cells at 1 uM measured after 48 hrs by JC1 staining-based flow cytometry analysis (reference value: 0%); assay type: functional
HeLa [13] = test: Induction of apoptosis in human HeLa cells assessed as late apoptotic cells at 750 nM incubated for 24 hrs by annexin V FITC and propidium iodide staining based flow cytometry analysis (reference value: 0.05%); assay type: functional
HeLa [14] = test: Induction of mitochondrial membrane potential alteration in human HeLa cells assessed as viable cells at 250 nM measured after 48 hrs by JC1 staining-based flow cytometry analysis (reference value: 90.9%); assay type: functional; conditions: read-out: Activity
HeLa [15] = test: Induction of apoptosis in human HeLa cells assessed as early apoptotic cells at 100 nM incubated for 24 hrs by annexin V FITC and propidium iodide staining based flow cytometry analysis (reference value: 0.12%); assay type: functional
HeLa [16] = test: Induction of cell cycle arrest in human HeLa cells assessed as reduction of cells at S phase at 100 to 2000 nM incubated for 24 to 48 hrs by […] flow cytometry; assay type: functional; conditions: dose 100-2000 nM, time 24-48 hrs
HeLa [17] = test: Induction of apoptosis in human HeLa cells assessed as necrotic cells at 750 nM incubated for 48 hrs by annexin V FITC and propidium iodide staining based flow cytometry analysis (reference value: 1.85 %); assay type: functional
HeLa [18] = test: Induction of apoptosis in human HeLa cells assessed as necrotic cells at 500 nM incubated for 24 hrs by annexin V FITC and propidium iodide staining based flow cytometry analysis (reference value: 1.14 %); assay type: functional
HeLa [19] = test: Induction of apoptosis in human HeLa cells assessed as early apoptotic cells at 500 nM incubated for 72 hrs by annexin V FITC and propidium iodide staining based flow cytometry analysis (reference value: 2.36%); assay type: functional
HeLa [20] = test: Induction of mitochondrial membrane potential alteration in human HeLa cells assessed as viable cells at 1 uM measured after 48 hrs by JC1 staining-based flow cytometry analysis (reference value: 90.9%); assay type: functional; conditions: read-out: Activity
HeLa [21] = test: Induction of apoptosis in human HeLa cells assessed as early apoptotic cells at 100 nM incubated for 48 hrs by annexin V FITC and propidium iodide staining based flow cytometry analysis (reference value: 6.01%); assay type: functional
HeLa [22] = test: Induction of mitochondrial membrane potential alteration in human HeLa cells assessed as viable cells at 750 nM measured after 48 hrs by JC1 staining-based flow cytometry analysis (Rvb =90.9 %); assay type: functional; conditions: read-out: Activity
HL-60 = test: Antiproliferative activity against human HL-60 cells assessed as reduction in cell viability incubated for 48 hrs by MTS assay; assay type: functional, cell-based; conditions: HL-60, 48 h
HeLa [23] = test: Induction of apoptosis in human HeLa cells assessed as early apoptotic cells at 1 uM incubated for 24 hrs by annexin V FITC and propidium iodide staining based flow cytometry analysis (reference value: 0.12%); assay type: functional
HeLa [24] = test: Induction of apoptosis in human HeLa cells assessed as viable cells at 500 nM incubated for 72 hrs by annexin V FITC and propidium iodide staining based flow cytometry analysis (reference value: 90.1%); assay type: functional; conditions: read-out: Activity
HeLa [25] = test: Induction of mitochondrial membrane potential alteration in human HeLa cells assessed as viable cells at 100 nM measured after 48 hrs by JC1 staining-based flow cytometry analysis (reference value: 90.9 %); assay type: functional; conditions: read-out: Activity
HeLa [26] = test: Induction of apoptosis in human HeLa cells assessed as early apoptotic cells at 750 nM incubated for 48 hrs by annexin V FITC and propidium iodide staining based flow cytometry analysis (reference value: 6.01%); assay type: functional
HeLa [27] = test: Induction of apoptosis in human HeLa cells assessed as late apoptotic cells at 100 nM incubated for 72 hrs by annexin V FITC and propidium iodide staining based flow cytometry analysis (reference value: 4.70%); assay type: functional
HeLa [28] = test: Induction of mitochondrial membrane potential alteration in human HeLa cells assessed as early apoptotic cells at 1 uM measured after 48 hrs by JC1 staining-based flow cytometry analysis (reference value: 9.07 %); assay type: functional
[29] = Metabolic stability in rat liver microsomes incubated for 5 mins in absence of NADPH by HPLC analysis; assay type: ADME, Microsome
HeLa [30] = test: Induction of apoptosis in human HeLa cells assessed as necrotic cells at 100 nM incubated for 24 hrs by annexin V FITC and propidium iodide staining based flow cytometry analysis (reference value: 1.14 %); assay type: functional
HeLa [31] = test: Induction of apoptosis in human HeLa cells assessed as viable cells at 1 uM incubated for 48 hrs by annexin V FITC and propidium iodide staining based flow cytometry analysis (reference value: 85.5%); assay type: functional; conditions: read-out: Activity
HeLa [32] = test: Induction of apoptosis in human HeLa cells assessed as late apoptotic cells at 750 nM incubated for 48 hrs by annexin V FITC and propidium iodide staining based flow cytometry analysis (reference value: 8.87%); assay type: functional

COc1cc(C(=O)c2nc(N3CCCC3)nc3ccsc23)cc(OC)c1OC
Activity (HeLa [1]): 2.38%
Activity (HeLa [2]): 6.42%
viability at 0.5 µM (HeLa [3]): 80.1%
Activity (HeLa [4]): 0.01%
Activity (HeLa [5]): 0.077%
viability at 1 µM (HeLa [6]): 80.1%
viability at 1 µM (HeLa [7]): 27.9%
Activity (HeLa [8]): 8.84%
Activity (HeLa [9]): 46.3%
Activity (HeLa [10]): 0.01%
microsomal CLint [11]: 40.8 µL/min/mg
pIC50 (A549): 7.85
Activity (HeLa [12]): 0.053%
Activity (HeLa [13]): 7.06%
viability at 0.25 µM (HeLa [14]): 90.5%
Activity (HeLa [15]): 2.98%
Activity (HeLa [16]): Active
Activity (HeLa [17]): 22.5%
Activity (HeLa [18]): 1.74%
Activity (HeLa [19]): 0.734%
viability at 1 µM (HeLa [20]): 44.6%
Activity (HeLa [21]): 2.8%
viability at 0.75 µM (HeLa [22]): 56.7%
pIC50 (HL-60): 8.10
Activity (HeLa [23]): 7.23%
viability at 0.5 µM (HeLa [24]): 32.6%
viability at 0.1 µM (HeLa [25]): 92.4%
Activity (HeLa [26]): 7.72%
Activity (HeLa [27]): 8.57%
Activity (HeLa [28]): 55.3%
Stability [29]: Stable
Activity (HeLa [30]): 1.52%
viability at 1 µM (HeLa [31]): 0.77%
Activity (HeLa [32]): 33.1%

From ChEMBL document CHEMBL5126582, “Discovery of (2-(pyrrolidin-1-yl)thieno[3,2-d]pyrimidin-4-yl)(3,4,5-trimethoxyphenyl)methanone as a novel potent tubulin depolymerizing and vascular disrupting agent” (Eur J Med Chem, 2022)
